Assay results taken from patent US20260256143A1, “HERBICIDAL COMPOSITION AND METHOD FOR CONTROLLING WEEDS” (Enko Chem, Inc., priority 2023, published 2026).
Like-named read-outs stand apart in the source and are kept apart here.

Tests used:
AMATU [1] = assay: Greenhouse post-emergence foliar test (Example 72); format: in vivo, Amaranthus rudis; conditions: Amaranthus tuberculatus, 336 h, read-out: % Visual growth inhibition (AMATU)
Protocol: (§1) Compound 1 was tested at several doses for foliar weed control efficacy by itself or in combination with other herbicides.
(§2) The weed seeds were sown in 10″×20″ trays and propagated up to the transplanting stage which is 1-2 emerging leaves. One plant was then transplanted into 7×7×8 cm pots and sprayed with the compounds when plants reached the 3-4 true leaf stage for grass species or 10-15 cm for broadleaf species. The plants were propagated in a greenhouse with 26-28° C. day, 20-22° C. night temperature at 50-60%0 relative humidity and supplemental light using high pressure sodium grow lights when necessary. Three weeks after sowing, plants were sprayed with the test compound solution in a laboratory spray chamber fitted with 8003 even fan nozzle calibrated to deliver 187 L ha^−1 at 269 kPa. All treatments included the following inert ingredients in the final formulation; […] (AGRI-DEX®, Helena Agri), 2.5% Ammonium sulphate (w/v), and 0.1% Tween-20 (v/v). Plants were evaluated for percentage visual growth inhibition compared to treated control, 14 days after treatment (DAT).

ECHCG [2] = assay: Greenhouse post-emergence foliar test (Example 72); format: in vivo; conditions: Echinochloa crus-galli, 336 h, read-out: % Visual growth inhibition (ECHCG)
Protocol: as §1, §2

ALOMY = assay: Greenhouse pre-emergence residual test (Example 73); format: in vivo, Alopecurus myosuroides; conditions: 17-21 DAT
Protocol: (§3) Compound 1 was tested at several doses for residual weed control efficacy by itself or in combination as a tank mix with commercial herbicides. The following commercial products were used in tank mix with a 10% active emulsifiable concentrate formulation of Compound 1: S-metolachlor (Dual Magnum®, Syngenta), mesotrione (Callisto®, Syngenta), pyroxasulfone (Zidua® SC, BASF), metribuzin (Tricor DF™, United Phosphorus, Inc).
(§4) Accordingly, weed seeds were planted in 2-inch pots containing custom field soil mix (sandy loam with 3.3% organic matter, pH 7.0) and covered with a fine layer of the same soil. Three replicate pots were treated with each compound. Treatment consisting of the above formulation excluding active compound was applied as a treatment control (TC). Pots were treated with the test compound solution in a laboratory spray chamber fitted with 8003 even fan nozzles calibrated to deliver 187-200 L ha^−1 at 269 kPa. All treatments included the following inert ingredients in the final formulation; 1% Crop Oil Concentrate (v/v) (AGRI-DEX, Helena Agri) and 2.5% Ammonium sulphate (w/v). Compound 1 was incorporated into the soil by simulating rainfall equivalent to 0.2 mm using the same track sprayer. Subsequently, pots were irrigated from the bottom until weed control evaluation. Pots were placed back in the greenhouse and evaluated for percentage visual growth and germination inhibition compared to TC 17-21 days after treatment (DAT). Complete growth inhibition is represented by 100%.

AMAPA [3] = assay: as above; format: in vivo, Amaranthus palmeri; conditions: 17-21 DAT
Protocol: as §3, §4

AMATU [4] = assay: as above; format: in vivo, Amaranthus rudis; conditions: 17-21 DAT
Protocol: as §3, §4

KCHSC = assay: as above; format: in vivo, Bassia scoparia; conditions: 17-21 DAT
Protocol: as §3, §4

CHEAL [5] = assay: as above; format: in vivo, Chenopodium album; conditions: 17-21 DAT
Protocol: as §3, §4

DIGSA = assay: as above; format: in vivo, Digitaria sanguinalis; conditions: 17-21 DAT
Protocol: as §3, §4

ECHCG [6] = assay: as above; format: in vivo, Echinochloa crus-galli; conditions: 17-21 DAT
Protocol: as §3, §4

AMATU [7] = assay: Field test, post-emergence foliar application (Example 70); format: in vivo, Amaranthus rudis; conditions: glyphosate 1120 g a.i./ha, 2 weeks after application
Protocol: (§5) Compound 1 and Compound 1 mixed with glyphosate were tested at different field locations to evaluate the herbicides efficacy for controlling weeds by post-emergence foliar application. All herbicide treatments were applied with a backpack CO2 pressurized sprayer at 190 L/ha volume. The applications were made after the weeds emerged and reached the 5 to 12 cm size range. Herbicide treatments included Compound 1 formulated as 10% emulsified concentrate, glyphosate as a commercial formulation (Roundup Power Max, Monsanto), or a mixture of Compound 1 and glyphosate products prepared as a “tank-mix” before the field application. All herbicide field spray solution included ammonium sulfate and concentrated crop oil adjuvant to a final solution concentration of 2% and 1% respectively. Different weeds species were assessed at the separate field locations. For each species, the herbicide efficacy to control weeds, assessed as % of dead plants relative to the untreated control plots, was evaluated at 2 weeks after the herbicide application to account for weed re-growth.

SETFA = assay: as above; format: in vivo, Setaria faberi; conditions: Loc 15; glyphosate 1120 g a.i./ha; 2 weeks after application
Protocol: as §5

CHEAL [8] = assay: as above; format: in vivo, Chenopodium album; conditions: glyphosate 1120 g a.i./ha, 2 weeks after application
Protocol: as §5

AMAPA [9] = assay: as above; format: in vivo, Amaranthus palmeri; conditions: Loc 13; glyphosate 1120 g a.i./ha; 2 weeks after application
Protocol: as §5

ABUTH = assay: as above; format: in vivo, Abutilon theophrasti; conditions: Loc 13; glyphosate 1120 g a.i./ha; 2 weeks after application
Protocol: as §5

Structure (SMILES): O=C(O)COc1ccc(Cl)cc1Cl [2,4-D acid, 2,4-dichlorophenoxyacetic acid]
- inhibition at 280 g/ha (AMATU [1]): 89%
- inhibition at 280 g/ha (ECHCG [2]): 10%

Structure (SMILES): CCc1cccc(C)c1N(C(=O)CCl)[C@@H](C)COC [S-metolachlor]
- Pre-emergence percent weed growth and germination inhibition ALOMY (ALOMY; Dose 1000 g a.i./ha): 30%
- Pre-emergence percent weed growth and germination inhibition AMAPA (AMAPA [3]; Dose 1000 g a.i./ha): 65%
- Pre-emergence percent weed growth and germination inhibition AMATU (AMATU [4]; Dose 1000 g a.i./ha): 80%
- Pre-emergence percent weed growth and germination inhibition KCHSC (KCHSC; Dose 1000 g a.i./ha): 57%
- Pre-emergence percent weed growth and germination inhibition CHEAL (CHEAL [5]; Dose 1000 g a.i./ha): 50%
- Pre-emergence percent weed growth and germination inhibition DIGSA (DIGSA; Dose 1000 g a.i./ha): 80%
- Pre-emergence percent weed growth and germination inhibition ECHCG (ECHCG [6]; Dose 1000 g a.i./ha): 93%

Structure (SMILES): COc1c(Cl)ccc(Cl)c1C(=O)O [dicamba, 3,6-dichloro-2-methoxybenzoic acid]
- inhibition at 280 g/ha (AMATU [1]; Dose 280 g a.i./ha, 14 DAT): 74%
- inhibition at 280 g/ha (ECHCG [2]; Dose 280 g a.i./ha, 14 DAT): 5%

Structure (SMILES): CP(=O)(O)CCC(N)C(=O)O (stereo not shown) [glufosinate]
- inhibition at 450 g/ha (AMATU [1]): 96%
- inhibition at 450 g/ha (ECHCG [2]): 41%

Structure (SMILES): O=C(O)CNCP(=O)(O)O [glyphosate]
- % dead AMATU (AMATU [7]; Loc 11): 88%
- % dead AMATU (AMATU [7]; Loc 12): 50%
- % dead AMATU (AMATU [7]; Loc 14): 32%
- % dead AMATU (AMATU [7]; Loc 15): 12%
- % dead SETFA (SETFA): 100%
- inhibition at 1000 g/ha (AMATU [1]): 60%
- inhibition at 860 g/ha (ECHCG [2]): 84%
- % dead CHEAL (CHEAL [8]; Loc 11): 88%
- % dead CHEAL (CHEAL [8]; Loc 14): 88%
- % dead AMAPA (AMAPA [9]): 13%
- % dead ABUTH (ABUTH): 85%

Structure (SMILES): CS(=O)(=O)c1ccc(C(=O)C2C(=O)CCCC2=O)c([N+](=O)[O-])c1 [mesotrione]
- inhibition at 210 g/ha (ALOMY; Alopecurus myosuroides, pre-emergence, Dose 210 g a.i./ha, read-out: Pre-emergence percent weed growth and germination inhibition ALOMY): 20%
- inhibition at 210 g/ha (AMAPA [3]; Amaranthus palmeri, pre-emergence, Dose 210 g a.i./ha, read-out: Pre-emergence percent weed growth and germination inhibition AMAPA): 53%
- inhibition at 210 g/ha (AMATU [4]; Amaranthus tuberculatus, pre-emergence, Dose 210 g a.i./ha, read-out: Pre-emergence percent weed growth and germination inhibition AMATU): 75%
- inhibition at 210 g/ha (KCHSC; Bassia scoparia, pre-emergence, Dose 210 g a.i./ha, read-out: Pre-emergence percent weed growth and germination inhibition KCHSC): 77%
- inhibition at 105 g/ha (AMATU [1]; Dose 105 g a.i./ha, 14 DAT): 61%
- inhibition at 210 g/ha (CHEAL [5]; Chenopodium album, pre-emergence, Dose 210 g a.i./ha, read-out: Pre-emergence percent weed growth and germination inhibition CHEAL): 100%
- inhibition at 210 g/ha (DIGSA; Digitaria sanguinalis, pre-emergence, Dose 210 g a.i./ha, read-out: Pre-emergence percent weed growth and germination inhibition DIGSA): 82%
- inhibition at 105 g/ha (ECHCG [2]; Dose 105 g a.i./ha, 14 DAT): 95%
- inhibition at 210 g/ha (ECHCG [6]; Echinochloa crus-galli, pre-emergence, Dose 210 g a.i./ha, read-out: Pre-emergence percent weed growth and germination inhibition ECHCG): 33%

Structure (SMILES): CSc1nnc(C(C)(C)C)c(=O)n1N [metribuzin]
- inhibition at 200 g/ha (ALOMY; Alopecurus myosuroides, pre-emergence, Dose 200 g a.i./ha, read-out: Pre-emergence percent weed growth and germination inhibition ALOMY): 12%
- inhibition at 200 g/ha (AMAPA [3]; Amaranthus palmeri, pre-emergence, Dose 200 g a.i./ha, read-out: Pre-emergence percent weed growth and germination inhibition AMAPA): 20%
- inhibition at 200 g/ha (AMATU [4]; Amaranthus tuberculatus, pre-emergence, Dose 200 g a.i./ha, read-out: Pre-emergence percent weed growth and germination inhibition AMATU): 65%
- inhibition at 200 g/ha (KCHSC; Bassia scoparia, pre-emergence, Dose 200 g a.i./ha, read-out: Pre-emergence percent weed growth and germination inhibition KCHSC): 100%
- inhibition at 200 g/ha (CHEAL [5]; Chenopodium album, pre-emergence, Dose 200 g a.i./ha, read-out: Pre-emergence percent weed growth and germination inhibition CHEAL): 100%
- inhibition at 200 g/ha (DIGSA; Digitaria sanguinalis, pre-emergence, Dose 200 g a.i./ha, read-out: Pre-emergence percent weed growth and germination inhibition DIGSA): 13%
- inhibition at 200 g/ha (ECHCG [6]; Echinochloa crus-galli, pre-emergence, Dose 200 g a.i./ha, read-out: Pre-emergence percent weed growth and germination inhibition ECHCG): 12%
